Measurements taken from patent US20260248788A1, “NEW COMPOUNDS AND TREATMENT OF RENAL CELL CARCINOMA” (TRUSTLIFE THERAPEUTICS INC., priority 2023, published 2026).
“Also recorded” adds a separate entry of the source. *1 amine or outer side, *2 acyl side, *3 side chain or, on linkers, in order; H or OH if unused. Where a SMILES comes first, the peptide text is derived from it. Bridges are numbered along the chain shown (N, C = ends). Roman numbers before positions name the chains, in order. [ ]: non-standard residue; d: D form. Actinocin(9to1) = Cc1c2oc3c(C)ccc(C(=O)[*:1])c3nc-2c(C(=O)[*:2])c(N)c1=O; NMeV = CN[C@H](C(=O)O)C(C)C; Sar = CNCC(=O)O

How the values were obtained:
Format in all cases: cell-based, human
RRM2 = assay: Western blot of RRM2 protein level in drug-treated Caki-1; conditions: Caki-1, 24 h; NVP-TAE684 3 nM, MK-0752 5 nM, withaferin-a 4 μM, actinomycin-d 0.3 nM; vs DMSO
Experimental: (§1) Cell culture 1: Human clear cell renal cell carcinoma (ccRCC) cell line Caki-1 was obtained from the Karolinska Institute of Environmental Medicine, Stockholm, Sweden, derived from a ccRCC patient. The cells were cultured in RPMI 1640 medium with 10% fetal bovine serum (FBS) and 1% penicillin/streptomycin. The cells were cultivated at 37° C. in a humidified incubator with 5% CO2.
(§2) TG-101209, NVP-TAE684, MK-0752, actinomycin-d, and panobinostat were purchased from Selleckchem (S2692, S1108, S2660, S8964, S1030, Selleckchem, Houston, TX, USA), and withaferin-a was purchased from Sigma (W4394, Sigma-Aldrich, Saint Louis, MO, USA). These drugs were dissolved in DMSO. The cells (from cell culture 1) were seeded in a 96-well plate at 20×10^3 cells per well. After seeding for 24 h, the cells were treated for 24 h with the target drugs: TG-101209 (6 nM), NVP-TAE684 (3 nM), MK-0752 (5 nM), withaferin-a (4 μM), actinomycin-d (0.3 nM), and panobinostat (5 nM). The cells in the negative control group were only treated by DMSO for one day.
The cells were washed with phosphate-buffered saline (PBS) and lysed with CelLytic M (C2978, Sigma-Aldrich, Saint Louis, MO, USA) lysis buffer containing protease inhibitors. The lysates were centrifuged at 12 000 rpm for 5 min, and the supernatant was collected. The proteins were separated by Mini-PROTEAN® TGX™ Precast Gels (BioRad, Berkeley, CA, USA) and transferred to a Trans-Blot Turbo Mini 0.2 μm PVDF Transfer Packs membrane (BioRad, Berkeley, CA, USA) by using Trans-Blot® Turbo™ Transfer System (Bio-Rad, Berkeley, CA, USA). The antibodies for BUB1B (HPA008419), RRM2 (HPA056994), CEP55 (HPA023430), ASF1B (HPA069385), CCNB2 (HPA008873), and GAPDH (sc47724, Santa Cruz Biotechnology, Inc.) were used for primary immunoblotting. All the antibodies were diluted at 1:10000 concentration. The membranes were incubated in primary antibody solution overnight at 4° C. with gentle rocking. […] The protein bands were detected with ImageQuanat™ LAS 500 (29-0050-63, GE) automatic exposure procedure or 6 min exposure.

Caki-1 = assay: Cell Counting Kit-8 (CCK-8) cell viability assay; conditions: Caki-1, 24 h; TG-101209 6 nM, NVP-TAE684 3 nM, MK-0752 5 nM, withaferin-a 4 μM, panobinostat 5 nM; vs DMSO
Experimental: Cell culture 1: Human clear cell renal cell carcinoma (ccRCC) cell line Caki-1 was obtained from the Karolinska Institute of Environmental Medicine, Stockholm, Sweden, derived from a ccRCC patient. The cells were cultured in RPMI 1640 medium with 10% fetal bovine serum (FBS) and 1% penicillin/streptomycin. The cells were cultivated at 37° C. in a humidified incubator with 5% CO2. TG-101209, NVP-TAE684, MK-0752, actinomycin-d, and panobinostat were purchased from Selleckchem ([…], […], […], […], […], Selleckchem, Houston, TX, USA), and withaferin-a was purchased from Sigma (W4394, Sigma-Aldrich, Saint Louis, MO, USA). These drugs were dissolved in DMSO. The cells (from cell culture 1) were seeded in a 96-well plate at 20×10^3 cells per well. After seeding for 24 h, the cells were treated for 24 h with the target drugs: TG-101209 (6 nM), NVP-TAE684 (3 nM), MK-0752 (5 nM), withaferin-a (4 μM), actinomycin-d (0.3 nM), and panobinostat (5 nM). The cells in the negative control group were only treated by DMSO for one day. Cell proliferation was detected by Cell Counting Kit-8 (CCK-8) assay. The 10 μl of CCK-8 reagent (1:10) was added to each well of 96-well plate with siRNA transfected cells or drug-treated cells by manufacturer's instruction. The 96-well plate was incubated at 37° C. for 2 hours and then measured absorbance at 450 nm using a microplate reader (Hidex Sense Beta Plus).

Caki-1 cells [1] = assay: MTT cell viability assay
Experimental: (§3) Cell culture 2: Caki-1 was purchased from CLS Cell Lines Service (Germany). The cells were maintained in McCoy's 5A (modified) medium (16600082, Thermo Fisher Scientific, USA) and supplemented with 10% fetal bovine serum (FBS, F7524, Sigma-Aldrich), 1% Penicillin/Streptomycin (P4333, Sigma-Aldrich).
The cytotoxic effects of the TG-101209 and its alternatives on the Caki-1 cells were tested by MTT (Thiazolyl Blue Tetrazolium Bromide) method. 1.5×10^4 cells were seeded per well in a 96-well plate in 100 μL growth media. […] After the incubation period, 5 mg/ml MTT (M2128, Sigma-Aldrich) solution in PBS (10 μL) was added to each well. After 1 hour, the MTT solution and all media were removed from the wells. 100 μl of DMSO was added and mixed to dissolve the formazan crystals. Cell viability was analysed by measuring the absorbance of the dissolved formazan at a wavelength of 570 nm with a microplate reader (Hidex Sense Beta Plus).

Caki-1 cells [2] = assay: LDH cytotoxicity assay; conditions: Caki-1, 10 nM-30 μM
Experimental: as §3
Lactate dehydrogenase (LDH) assay was performed with LDH Assay Kit (ab65393). […] 20 μl of media was analysed with LDH Assay Kit as per manufacturer's instruction.

BUB1B [3] = assay: Western blot of BUB1B in Caki-1 cells treated with TG-101209 derivatives; conditions: Caki-1 cells, 5 μM of target drug, 1 day (FIG. 41, 56)
Experimental: as §3
The target drugs developed as alternatives to TG-101209, were dissolved in 0.1% DMSO (41639, Sigma-Aldrich). Caki-1 cells from cell culture 2 were seeded in a 6-well plate at 3×10^5 cells per well. […]
The cells were washed with PBS solution and then lysed with CelLytic M (C2978, Sigma-Aldrich) lysis buffer containing protease inhibitors (11836170001, Roche). The cell lysates were centrifuged at 12 000 rpm for 10 min and supernatants were collected. Protein Assay Dye Reagent (5000006, Bio-Rad) was used for the determination of protein concentration. The absorbance of the proteins was measured spectrophotometrically at 595 nm by a microplate reader (Hidex Sense Beta Plus). Protein electrophoresis was performed using Mini-PROTEAN® TGX™ Precast Gels (4561086, Bio-Rad) and then the separated proteins were transferred to a Trans-Blot Turbo Mini 0.2 μm PVDF Transfer Packs membrane (1704158, Bio-Rad) by using Trans-Blot® Turbo™ Transfer System (Bio-Rad). The membrane was blocked with 5% skim milk for 30 min at 4° C. with gentle rocking. After blocking, the membrane was treated with primary antibodies: Anti-BUB1B (HPA008419, Human Protein Atlas, Sweden) and Anti-Beta actin (ab8227, Abcam) as a loading control overnight at 4° C. on a rocking platform. After the treatment of primary antibodies, the membrane was washed three times with TBS-T buffer (A09-7500-100, Medicago). Then, Goat anti-Rabbit IgG-HRP (ab205718, Abcam) was treated as the secondary antibody for 30 min at 4° C. with gentle rocking.

BUB1B [4] = assay: Western blot of BUB1B protein level in drug-treated Caki-1; conditions: Caki-1, TG-101209 6 nM, 24 h, vs DMSO negative control
Experimental: as §1, §2
The cells were washed with phosphate-buffered saline (PBS) and lysed with CelLytic M (C2978, Sigma-Aldrich, Saint Louis, MO, USA) lysis buffer containing protease inhibitors. […] The protein bands were detected with ImageQuanat™ LAS 500 (29-0050-63, GE) automatic exposure procedure or 6 min exposure.

| SMILES | protein level of RRM2 (Western blot) (RRM2) | cell viability (CCK-8) (Caki-1) | change of IC50 values after 2 days compared to 1 day treatment (Caki-1 cells [1]; Caki-1 (FIG. 53-54)) | effect on cell viability (MTT) (Caki-1 cells [1]; Caki-1, 10 μM, 1 day, first batch) | IC50 (Caki-1 cells [1]; Caki-1, 1 day (FIG. 43), text: after treatment with 5 μM) | Ranking, Cell viability (%) (Caki-1 cells [1]; top five, MTT assay, 10 μM, 1 day, rank 1 = greatest reduction) | cytotoxic effect and dose dependence (Caki-1 cells [2]) | expression levels of BUB1B (Western blot) (BUB1B [3]) | protein level of BUB1B (Western blot) (BUB1B [4]) |
| --- | --- | --- | --- | --- | --- | --- | --- | --- | --- |
| COc1cc(N2CCC(N3CCN(C)CC3)CC2)ccc1Nc1ncc(Cl)c(Nc2ccccc2S(=O)(=O)C(C)C)n1 [NVP-TAE684] | significantly suppressed | significantly reduced |  |  |  |  |  |  |  |
| Cc1cnc(Nc2ccc(N3CCN(C)CC3)cc2)nc1Nc1cccc(S(=O)(=O)NC(C)(C)C)c1 [TG-101209, reference compound] |  | significantly reduced | largest decrease | most profound effect | ~3000 nM | 5 | dose dependent toxicity | significantly lower the expression levels of BUB1B | significantly decreased; also recorded: significantly reduced |
| Cc1c2oc3c(C)ccc(C(=O)N[C@@H]4C(=O)N[C@H](C(C)C)C(=O)N5CCC[C@H]5C(=O)N(C)CC(=O)N(C)[C@@H](C(C)C)C(=O)O[C@@H]4C)c3nc-2c(C(=O)N[C@@H]2C(=O)N[C@H](C(C)C)C(=O)N3CCC[C@H]3C(=O)N(C)CC(=O)N(C)[C@@H](C(C)C)C(=O)O[C@@H]2C)c(N)c1=O [actinomycin-d] (I: T[dV]P[Sar][NMeV] / II: T[dV]P[Sar][NMeV]; ester I:1-I:C, II:1-II:C; linker I:N-II:N via Actinocin(9to1)) | does not work for inhibiting RRM2 |  |  |  |  |  |  |  |  |
| CC1=C(CO)C(=O)O[C@@H]([C@@H](C)[C@H]2CC[C@H]3[C@@H]4C[C@H]5O[C@]56[C@@H](O)C=CC(=O)[C@]6(C)[C@H]4CC[C@]23C)C1 [withaferin-a] | significantly suppressed | significantly reduced |  |  |  |  |  |  |  |
